In paper PMC11150392, “Structure and mechanism of the K^+/H^+ exchanger KefC” (Nature Communications, 2024):

Biological target: T1, KefC WT* (Escherichia coli, UniProt P03819)
T1 construct: lacks final 60 C-terminal residues (WT*); C-terminal TEV-GFP-His8, cleaved for cryo-EM, kept in FSEC stability assays; expressed in E. coli Lemo21(DE3)-type host; homodimer in DDM/GDN
T1 sequence (P03819 1-560): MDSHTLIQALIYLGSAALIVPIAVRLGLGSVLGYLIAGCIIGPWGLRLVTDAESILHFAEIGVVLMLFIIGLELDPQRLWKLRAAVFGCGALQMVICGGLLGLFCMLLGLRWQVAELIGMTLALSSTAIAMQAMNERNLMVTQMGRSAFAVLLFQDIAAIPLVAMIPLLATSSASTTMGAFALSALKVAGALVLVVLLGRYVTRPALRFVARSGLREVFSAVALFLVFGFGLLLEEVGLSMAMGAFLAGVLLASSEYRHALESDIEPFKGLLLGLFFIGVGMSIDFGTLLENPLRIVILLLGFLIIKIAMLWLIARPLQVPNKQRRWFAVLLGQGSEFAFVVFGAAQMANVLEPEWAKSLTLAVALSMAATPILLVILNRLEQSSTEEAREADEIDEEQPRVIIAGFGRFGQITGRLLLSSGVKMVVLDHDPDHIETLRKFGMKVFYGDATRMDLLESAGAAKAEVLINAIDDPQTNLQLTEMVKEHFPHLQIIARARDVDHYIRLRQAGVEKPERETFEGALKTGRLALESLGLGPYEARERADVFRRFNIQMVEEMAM
Experiment: FSEC thermostabilization of purified GFP fusion
Assay type: binding
Conditions: 40 °C 10 min, 1% beta-OG, DDM, 1 mM AMP, pH 7.5; dimer interface; Supplementary Fig. 5b; PG modelled (PGW), map density not unambiguous

With CCCCCCCC/C=C\CCCCCCCC(=O)OC[C@H](COP(=O)(O)OCC(O)CO)OC(=O)CCCCCCC/C=C\CCCCCCCC (stereo partly shown) [DOPG] as the compound, how does the “FSEC thermostabilization of purified GFP fusion” value read?
Its value is “The clearest thermostabilization of the KefC homodimer was observed upon addition of PG lipids”.
